Key:
dogs = conditions: numerous studies; cited from earlier work
patients = experiment: clinical study of imexon to treat cancer: adverse events (daily dose 5 consecutive days per week, every other week, four-week cycle); assay type: in vivo, human
Source text: As described hereinbefore, it has been found, unexpectedly, that the administration of a pharmaceutical composition comprising imexon induces constipation in a large percentage of patients. Of forty nine (49) patients taking part in a clinical study investigating the use of imexon to treat cancer, thirty one (31) patients (63.3%) were reported to have had the gastrointestinal toxicity of constipation in association with their treatment with imexon. […] All other observed gastrointestinal adverse events individually accounted for less than 5% of total gastrointestinal adverse events.
Of the forty nine (49) patients treated in the clinical study, thirty nine (39) received imexon at a dose equal to or greater than 140 mg/m^2, thirty three (33) received imexon at a dose equal to or greater than 185 mg/m^2, and thirty (30) received imexon at a dose equal to or greater than 245 mg/m^2.
Of these seventy three (73) constipation adverse events, fifty two (52) of the adverse events (71.2%) were characterized as “possibly,” “probably,” or “definitely related to the treatment” of the patient with imexon.

rats = conditions: numerous studies; cited from earlier work
[1] = 20 mg/m^2, relationship Not Related
[2] = 80 mg/m^2, relationship Not Related
[3] = 105 mg/m^2, relationship Not Related
[4] = 140 mg/m^2, relationship Not Related
[5] = 140 mg/m^2, relationship Probable
[6] = 140 mg/m^2, relationship Unlikely
[7] = 185 mg/m^2, relationship Not Related
[8] = 185 mg/m^2, relationship Possible
[9] = 185 mg/m^2, relationship Probable
[10] = 245 mg/m^2, relationship Not Related
[11] = 245 mg/m^2, relationship Possible
[12] = 245 mg/m^2, relationship Probable
[13] = 325 mg/m^2, relationship Possible
[14] = 325 mg/m^2, relationship Probable
[15] = 430 mg/m^2, relationship Possible
[16] = 430 mg/m^2, relationship Probable
[17] = 430 mg/m^2, relationship Unlikely
[18] = 570 mg/m^2, relationship Definite
[19] = 570 mg/m^2, relationship Probable
[20] = 750 mg/m^2, relationship Definite
[21] = 750 mg/m^2, relationship Possible
[22] = 750 mg/m^2, relationship Probable
[23] = 875 mg/m^2, relationship Definite
[24] = 875 mg/m^2, relationship Possible
[25] = 875 mg/m^2, relationship Probable
[26] = 1000 mg/m^2, relationship Probable
[27] = all doses 20-1000 mg/m^2 (Total), relationship Definite
[28] = all doses 20-1000 mg/m^2 (Total), relationship Not Related
[29] = all doses 20-1000 mg/m^2 (Total), relationship Possible
[30] = all doses 20-1000 mg/m^2 (Total), relationship Probable
[31] = all doses 20-1000 mg/m^2 (Total), relationship Unlikely
[32] = all doses 20-1000 mg/m^2, 49 patients, all relationships (Total)
[33] = dose equal to or greater than 185 mg/m^2
[34] = dose equal to or greater than 245 mg/m^2

N=C1NC(=O)N2CC12 (stereo not shown) [imexon, 4-imino-1,3-diazabicyclo[3.1.0]-hexan-2-one]
gastrointestinal lesions on pathologic examination (dogs): not shown evidence of gastrointestinal lesions | Constipation Adverse Events, Total (patients; 20 mg/m^2, relationship Definite): 0 | Constipation Adverse Events, Grade 2 (patients; [1]): 1 | Constipation Adverse Events, Grade 3 (patients; [1]): 1 | Constipation Adverse Events, Total (patients; [1]): 2 | Constipation Adverse Events, Total (patients; 20 mg/m^2, relationship Possible): 0 | Constipation Adverse Events, Total (patients; 20 mg/m^2, relationship Probable): 0 | Constipation Adverse Events, Total (patients; 20 mg/m^2, relationship Unlikely): 0 | Constipation Adverse Events, Total (patients; 40 mg/m^2, relationship Definite): 0 | Constipation Adverse Events, Total (patients; 40 mg/m^2, relationship Not Related): 0 | Constipation Adverse Events, Total (patients; 40 mg/m^2, relationship Possible): 0 | Constipation Adverse Events, Total (patients; 40 mg/m^2, relationship Probable): 0 | Constipation Adverse Events, Total (patients; 40 mg/m^2, relationship Unlikely): 0 | Constipation Adverse Events, Total (patients; 80 mg/m^2, relationship Definite): 0 | Constipation Adverse Events, Grade 2 (patients; [2]): 3 | Constipation Adverse Events, Grade 3 (patients; [2]): 1 | Constipation Adverse Events, Total (patients; [2]): 4 | Constipation Adverse Events, Total (patients; 80 mg/m^2, relationship Possible): 0 | Constipation Adverse Events, Total (patients; 80 mg/m^2, relationship Probable): 0 | Constipation Adverse Events, Total (patients; 80 mg/m^2, relationship Unlikely): 0 | Constipation Adverse Events, Total (patients; 105 mg/m^2, relationship Definite): 0 | Constipation Adverse Events, Grade 2 (patients; [3]): 5 | Constipation Adverse Events, Grade 3 (patients; [3]): 3 | Constipation Adverse Events, Total (patients; [3]): 8 | Constipation Adverse Events, Total (patients; 105 mg/m^2, relationship Possible): 0 | Constipation Adverse Events, Total (patients; 105 mg/m^2, relationship Probable): 0 | Constipation Adverse Events, Total (patients; 105 mg/m^2, relationship Unlikely): 0 | Constipation Adverse Events, Total (patients; 140 mg/m^2, relationship Definite): 0 | Constipation Adverse Events, Grade 2 (patients; [4]): 1 | Constipation Adverse Events, Total (patients; [4]): 1 | Constipation Adverse Events, Total (patients; 140 mg/m^2, relationship Possible): 0 | Constipation Adverse Events, Grade 2 (patients; [5]): 1 | Constipation Adverse Events, Total (patients; [5]): 1 | Constipation Adverse Events, Grade 2 (patients; [6]): 2 | Constipation Adverse Events, Grade 3 (patients; [6]): 1 | Constipation Adverse Events, Total (patients; [6]): 3 | Constipation Adverse Events, Total (patients; 185 mg/m^2, relationship Definite): 0 | Constipation Adverse Events, Grade 3 (patients; [7]): 1 | Constipation Adverse Events, Total (patients; [7]): 1 | Constipation Adverse Events, Grade 1 (patients; [8]): 1 | Constipation Adverse Events, Total (patients; [8]): 1 | Constipation Adverse Events, Grade 2 (patients; [9]): 1 | Constipation Adverse Events, Total (patients; [9]): 1 | Constipation Adverse Events, Total (patients; 185 mg/m^2, relationship Unlikely): 0 | Constipation Adverse Events, Total (patients; 245 mg/m^2, relationship Definite): 0 | Constipation Adverse Events, Grade 1 (patients; [10]): 1 | Constipation Adverse Events, Total (patients; [10]): 1 | Constipation Adverse Events, Grade 2 (patients; [11]): 4 | Constipation Adverse Events, Grade 3 (patients; [11]): 1 | Constipation Adverse Events, Total (patients; [11]): 5 | Constipation Adverse Events, Grade 2 (patients; [12]): 2 | Constipation Adverse Events, Grade 3 (patients; [12]): 1 | Constipation Adverse Events, Total (patients; [12]): 3 | Constipation Adverse Events, Total (patients; 245 mg/m^2, relationship Unlikely): 0 | Constipation Adverse Events, Total (patients; 325 mg/m^2, relationship Definite): 0 | Constipation Adverse Events, Total (patients; 325 mg/m^2, relationship Not Related): 0 | Constipation Adverse Events, Grade 2 (patients; [13]): 2 | Constipation Adverse Events, Total (patients; [13]): 2 | Constipation Adverse Events, Grade 1 (patients; [14]): 1 | Constipation Adverse Events, Grade 2 (patients; [14]): 2 | Constipation Adverse Events, Total (patients; [14]): 3 | Constipation Adverse Events, Total (patients; 325 mg/m^2, relationship Unlikely): 0 | Constipation Adverse Events, Total (patients; 430 mg/m^2, relationship Definite): 0 | Constipation Adverse Events, Total (patients; 430 mg/m^2, relationship Not Related): 0 | Constipation Adverse Events, Grade 2 (patients; [15]): 1 | Constipation Adverse Events, Total (patients; [15]): 1 | Constipation Adverse Events, Grade 1 (patients; [16]): 2 | Constipation Adverse Events, Grade 2 (patients; [16]): 5 | Constipation Adverse Events, Grade 3 (patients; [16]): 1 | Constipation Adverse Events, Total (patients; [16]): 8 | Constipation Adverse Events, Grade 1 (patients; [17]): 1 | Constipation Adverse Events, Total (patients; [17]): 1 | Constipation Adverse Events, Grade 1 (patients; [18]): 1 | Constipation Adverse Events, Grade 2 (patients; [18]): 4 | Constipation Adverse Events, Grade 3 (patients; [18]): 2 | Constipation Adverse Events, Total (patients; [18]): 7 | Constipation Adverse Events, Total (patients; 570 mg/m^2, relationship Not Related): 0 | Constipation Adverse Events, Total (patients; 570 mg/m^2, relationship Possible): 0 | Constipation Adverse Events, Grade 1 (patients; [19]): 1 | Constipation Adverse Events, Total (patients; [19]): 1 | Constipation Adverse Events, Total (patients; 570 mg/m^2, relationship Unlikely): 0 | Constipation Adverse Events, Grade 1 (patients; [20]): 1 | Constipation Adverse Events, Grade 2 (patients; [20]): 4 | Constipation Adverse Events, Grade 3 (patients; [20]): 3 | Constipation Adverse Events, Total (patients; [20]): 8 | Constipation Adverse Events, Total (patients; 750 mg/m^2, relationship Not Related): 0 | Constipation Adverse Events, Grade 1 (patients; [21]): 2 | Constipation Adverse Events, Total (patients; [21]): 2 | Constipation Adverse Events, Grade 2 (patients; [22]): 2 | Constipation Adverse Events, Total (patients; [22]): 2 | Constipation Adverse Events, Total (patients; 750 mg/m^2, relationship Unlikely): 0 | Constipation Adverse Events, Grade 1 (patients; [23]): 2 | Constipation Adverse Events, Grade 2 (patients; [23]): 1 | Constipation Adverse Events, Grade 3 (patients; [23]): 1 | Constipation Adverse Events, Total (patients; [23]): 4 | Constipation Adverse Events, Total (patients; 875 mg/m^2, relationship Not Related): 0 | Constipation Adverse Events, Grade 2 (patients; [24]): 1 | Constipation Adverse Events, Total (patients; [24]): 1 | Constipation Adverse Events, Grade 1 (patients; [25]): 1 | Constipation Adverse Events, Total (patients; [25]): 1 | Constipation Adverse Events, Total (patients; 875 mg/m^2, relationship Unlikely): 0 | Constipation Adverse Events, Total (patients; 1000 mg/m^2, relationship Definite): 0 | Constipation Adverse Events, Total (patients; 1000 mg/m^2, relationship Not Related): 0 | Constipation Adverse Events, Total (patients; 1000 mg/m^2, relationship Possible): 0 | Constipation Adverse Events, Grade 2 (patients; [26]): 1 | Constipation Adverse Events, Total (patients; [26]): 1 | Constipation Adverse Events, Total (patients; 1000 mg/m^2, relationship Unlikely): 0 | all other observed gastrointestinal adverse events, individually, as share of total gastrointestinal adverse events (patients; 49 patients): less than 5% | anorexia as share of total gastrointestinal adverse events (patients; 49 patients): 13.4% | constipation adverse events as share of all gastrointestinal adverse events (patients; 49 patients): 21.8% | diarrhea as share of total gastrointestinal adverse events (patients; 49 patients): 10.5% | nausea as share of all gastrointestinal adverse events (patients; 49 patients): 23.0% | vomiting as share of total gastrointestinal adverse events (patients; 49 patients): 11.9% | Constipation Adverse Events, Grade 1 (patients; [27]): 4 | Constipation Adverse Events, Grade 2 (patients; [27]): 9 | Constipation Adverse Events, Grade 3 (patients; [27]): 6 | Constipation Adverse Events, Grade 4 (patients; [27]): 0 | Constipation Adverse Events, Grade 5 (patients; [27]): 0 | Constipation Adverse Events, Total (patients; [27]): (Total) 19 | Constipation Adverse Events, Grade 1 (patients; [28]): 1 | Constipation Adverse Events, Grade 2 (patients; [28]): 10 | Constipation Adverse Events, Grade 3 (patients; [28]): 6 | Constipation Adverse Events, Grade 4 (patients; [28]): 0 | Constipation Adverse Events, Grade 5 (patients; [28]): 0 | Constipation Adverse Events, Total (patients; [28]): (Total) 17 | Constipation Adverse Events, Grade 1 (patients; [29]): 3 | Constipation Adverse Events, Grade 2 (patients; [29]): 8 | Constipation Adverse Events, Grade 3 (patients; [29]): 1 | Constipation Adverse Events, Grade 4 (patients; [29]): 0 | Constipation Adverse Events, Grade 5 (patients; [29]): 0 | Constipation Adverse Events, Total (patients; [29]): (Total) 12 | Constipation Adverse Events, Grade 1 (patients; [30]): 5 | Constipation Adverse Events, Grade 2 (patients; [30]): 14 | Constipation Adverse Events, Grade 3 (patients; [30]): 2 | Constipation Adverse Events, Grade 4 (patients; [30]): 0 | Constipation Adverse Events, Grade 5 (patients; [30]): 0 | Constipation Adverse Events, Total (patients; [30]): (Total) 21 | Constipation Adverse Events, Grade 1 (patients; [31]): 1 | Constipation Adverse Events, Grade 2 (patients; [31]): 2 | Constipation Adverse Events, Grade 3 (patients; [31]): 1 | Constipation Adverse Events, Grade 4 (patients; [31]): 0 | Constipation Adverse Events, Grade 5 (patients; [31]): 0 | Constipation Adverse Events, Total (patients; [31]): (Total) 4 | Constipation Adverse Events, Grade 1 (patients; [32]): (Total) 14 | Constipation Adverse Events, Grade 2 (patients; [32]): (Total) 43 | Constipation Adverse Events, Grade 3 (patients; [32]): (Total) 16 | Constipation Adverse Events, Grade 4 (patients; [32]): (Total) 0 | Constipation Adverse Events, Grade 5 (patients; [32]): (Total) 0 | Constipation Adverse Events, Total (patients; [32]): 73 | Constipation Adverse Events, Total (patients; all doses 20-1000 mg/m^2, 49 patients, all relationships (Total), listed as Imexon): (Total) 73 | constipation adverse events characterized as possibly, probably, or definitely related to the treatment (patients; [33]): 94.4% | constipation adverse events characterized as probably, or definitely related to the treatment (patients; [33]): 72.2% | constipation adverse events in total (patients; [33]): 54 | constipation adverse events characterized as possibly, probably, or definitely related to the treatment (patients; [34]): 96.1% | constipation adverse events characterized as probably, or definitely related to the treatment (patients; [34]): 74.5% | constipation adverse events in total (patients; [34]): 51 | gastrointestinal lesions on pathologic examination (rats): not shown evidence of gastrointestinal lesions

Reference: US20070048250A1, “Methods of treating concomitant constipation in a cancer treatment regimen including imexon” (AmpliMed Corporation, priority 2005, published 2007)
